Measurements published in patent US20200345013A1, “ANTI-ADHERENT BOTANICAL COMPOSITIONS” (priority 2014, published 2020).

Experiments:
C. albicans = test: High Throughput Anti-adherent Test, polystyrene, one-hour adhesion, C. albicans; type: cell-based, Candida albicans; details: agent 5% in water; percentage of microbes that remain attached to treated polystyrene; low = stronger anti-adherent effect; bracketed = adherent effect; * = single measurement, else n = 2
Excerpt: (§1) The botanical extracts listed in Table 3 were initially screened for their effect against microbial adhesion using the High Throughput Anti-adherent Test Method described below. The effect of the botanical filtrates as the percentage of control-corrected A490 is shown. For bacterial strains, the corrected A490 were all less than 20% of the untreated control. For C. albicans, the corrected A490 of the botanical filtrates were less than 70% of the untreated control. The lower percentage value indicates a stronger inhibitory effect.
(§2) II. High Throughput Anti-Adherence Test Method
(§3) This test method specifies the operational parameters required to grow and or prevent the formation of bacterial attachment using a high throughput screening assay. The assay device consists of a plastic lid with ninety-six (96) pegs and a corresponding receiver plate with ninety-six (96) individual wells that have a maximum 200 μL working volume. Biofilm is established on the pegs under static batch conditions (i.e., no flow of nutrients into or out of an individual well). • 1. […]

S. aureus = test: High Throughput Anti-adherent Test, polystyrene, one-hour adhesion, S. aureus; type: cell-based, Staphylococcus aureus; details: agent 5% in water; percentage of microbes that remain attached to treated polystyrene; low = stronger anti-adherent effect; average +/- SD, n = 2
Excerpt: as §1, §2, §3

K. pneumoniae = test: High Throughput Anti-adherent Test, polystyrene, one-hour adhesion, K. pneumoniae; type: cell-based, Klebsiella pneumoniae; details: agent 5% in water; percentage of microbes that remain attached to treated polystyrene; low = stronger anti-adherent effect; average +/- SD, n = 2
Excerpt: as §1, §2, §3

[1] = test system: Klebsiella pneumonia CICC 21519 (ATCC 4352); test: Screening anti-adhesion effect on porcine skin, K. pneumoniae; type: cell-based, Klebsiella pneumoniae; details: two-hour adhesion time, Table 2
Experimental: Klebsiella pneumonia CICC 21519 (ATCC 4352) and Staphylococcus aureus CICC 10384 (ATCC 6538P) were purchased from China Center of Industrial Culture Collection. • 2. […] Dilutions of overnight cultures in PBS buffer were used for the screening.
Aliquots (100 μL) of botanical/compounds suspensions were applied to porcine skins, three replicates. • 3. Skins were allowed to air dry for 2 hours at ˜50% relative humidity. • 4. Inocula (100 μL) were applied to the porcine skin, and incubated at 37° C. for 2 hours. • 5. The skins were washed three times by applying 5 ml of PBS+0.01% Tween 80 onto the skins and then removing the liquid by pipetting. • 6. […] Microbial cells were enumerated by spread plate method. • a. […] For S. aureus and K. pneumoniae, the suspension and dilutions were plated onto TSA, and incubated at 37° C. for 1 day. • 8. After incubation, colonies on plates were counted. Reduction (%) of colony forming unit (CFU) from the average counts on untreated skin was calculated. • 9.

[2] = test system: Staphylococcus aureus CICC 10384 (ATCC 6538P); test: Screening anti-adhesion effect on porcine skin, S. aureus; type: cell-based
Experimental: Preparation of Bacterial Cell Suspensions • 1. Klebsiella pneumonia CICC 21519 (ATCC 4352) and Staphylococcus aureus CICC 10384 (ATCC 6538P) were purchased from China Center of Industrial Culture Collection. • 2. Stock culture of each species was streaked onto TSA plate (OXOID, […], England) and incubated at 37° C. overnight. • 3. Single colonies were subcultured in TSB (OXOID, […], England) and incubated 37° C., 200 rpm overnight. • 4. Dilutions of overnight cultures in PBS buffer were used for the screening.
Screening the Anti-Adhesion Effect of Botanicals/Compounds on Porcine Skin • 1. Porcine skins were aseptically cut to squares of 2×2 cm, and each was placed in a sterile Petri dish (CITOTEST LABWARE MANUFACTURING CO., LTD, Haimen, Jiangsu). • 2. Aliquots (100 μL) of botanical/compounds suspensions were applied to porcine skins, three replicates. • 3. Skins were allowed to air dry for 2 hours at ˜50% relative humidity. • 4. Inocula (100 μL) were applied to the porcine skin, and incubated at 37° C. for 2 hours. • 5. […] After incubation, colonies on plates were counted. Reduction (%) of colony forming unit (CFU) from the average counts on untreated skin was calculated. • 9. […] After incubation, plaques on plates were counted. • d. Reduction (%) of plaque forming unit (PFU) from the average counts on untreated skin was calculated.

C. albicans SC5314 = test: Screening anti-adhesion effect on porcine skin, C. albicans; type: cell-based, Candida albicans; details: agent 5% in water, 2 h adhesion, average +/- SD, n = 2, positive = anti-adherent
Experimental: Preparation of C. albicans Cell Suspension • 1. Single cell suspension of C. albicans SC5314 was prepared as follows. Stock culture of C. albicans SC5314 was streaked onto YPD agar (YPDA) and incubated at 30° C. overnight. • 2. Single colonies were subcultured in YPD broth (YPDB) and incubated 30° C., 200 rpm overnight. • 3. Overnight culture in YPDB was subcultured in YPD broth again and incubated 30° C., 200 rpm for 48 hours. • 4. Cells were collected by centrifugation (4000×g, 10 minutes) at 4° C., washed three times with sterile water, and then resuspended in sterile water a final concentration of 10^9 CFU/mL. • 5. The suspension were stored at 4° C. at least 1 day, then subcultured into YPDB to a final concentration of 10^6 CFU/mL. • 6. After 48 hours incubation, cell suspension was examined under microscope for single cell percentage. • 7. […]
Screening the Anti-Adhesion Effect of Botanicals/Compounds on Porcine Skin • 1. […] After incubation, colonies on plates were counted. Reduction (%) of colony forming unit (CFU) from the average counts on untreated skin was calculated. • 9. […] After incubation, plaques on plates were counted. • d. Reduction (%) of plaque forming unit (PFU) from the average counts on untreated skin was calculated.

SMILES: Oc1ccc(C=Cc2cc(O)cc(O)c2)cc1 [Resveratrol]
- Reduction of Adherent Cells (%) from Polystyrene Control (One-Hour Adhesion Time), C. albicans (C. albicans): 25.5 ± 4.9%
- Reduction of Adherent Cells (%) from Polystyrene Control (One-Hour Adhesion Time), S. aureus (S. aureus): 8.0 ± 9.9%
- Reduction of Adherent Cells (%) from Polystyrene Control (One-Hour Adhesion Time), K. pneumoniae (K. pneumoniae): 7.0 ± 2.8%
- Anti-adherence on porcine skin in words, K. pneumonia [1]: failed to demonstrate anti-adherence
- Reduction of Adherent Cells (%) from Porcine Skin Control (Two-Hour Adhesion Time), S. aureus ([2]; agent 5% in water, 2 h adhesion, average +/- SD, n = 2, positive = anti-adherent): −4.2 ± 19.1%
- Anti-adherence on porcine skin in words, S. aureus ([2]; two-hour adhesion time, Table 2): failed to demonstrate anti-adherence
- Reduction of Adherent Cells (%) from Porcine Skin Control (Two-Hour Adhesion Time), C. albicans (C. albicans SC5314): 29.8 ± 11.2%
